What was measured:
[1] = Cytotoxic effect in uninfected MT4 cultures; type: cell-based; details: human, uninfected MT4 cells; compound alone; uninfected MT4
Procedure: (§1) Compounds were examined for possible antiviral activity against strain 111B of HIV-1 using MT4 cells as target cells. MT4 cells were incubated with virus (0.005 MOI) and growth medium containing the test dilutions of compound(s) for six days in parallel with virus-infected and uninfected control cultures without compound added. Expression of HIV in the cultures was indirectly quantified using the MTT assay as previously described. Compounds mediating less than 30% reduction of HIV expression were considered without biological activity. Compounds were tested in parallel for cytotoxic effect in uninfected MT4 cultures containing the test dilutions of compound as described above. Cultures for test of both antiviral activity and cytotoxic effect were set up in tripleduplicates, […] per culture in micro titre plates.
CC50 is defined as the inhibitory concentration that reduces cellular growth or viability of uninfected cells by 50%.

HIV-1 strain HTLV-IIIB = assay: Inhibition of HIV-1 replication in MT4 cells (MTT assay); type: cell-based; details: Human immunodeficiency virus 1, IIIB, 144 h; compound alone; MT4 cells, six days
Procedure: Each experiment was repeated in tripleduplicate. MIC values represent the mean values of two separate experiments.
The HIV-1 strain HTLV-IIIB were propagated in H9 cells at 37° C., 5% CO2 using RPMI 1640 with 10% heat-inactivated foetal calf serum (FCS) and antibiotics (growth medium). Culture supernatant was filtered ([…]), aliquotted, and stored at −80° C. until use. The HIV-1 strain was obtained from NIH AIDS Research and Reference Program.
as §1
The 50% inhibitory concentration was determined by interpolation from the plots of percent inhibition versus concentration of compound.
EC50 is defined as the effective concentration that inhibits 50% of viral production, 50% of viral infectivity, or 50% of the virus-induced cytopathic effect.

- EC50 (HIV-1 strain HTLV-IIIB): 50 nM
SMILES: Cc1cn([C@H]2C[C@H](N=[N+]=[N-])[C@@H](CO)O2)c(=O)[nH]c1=O [AZT, 3′-Azido-3′-deoxythymidine, reference compound]
- CC50 at 6 days [1]: > 3000 nM
